Patent US20060069132A1, “Azolecarboxamide herbicides” (priority 2004, published 2006)
Like-named read-outs stand apart in the source and are kept apart here.

How the values were obtained:
barnyardgrass = assay: Test B pre-/postemergence herbicide test; type: in vivo, Echinochloa crus-galli; conditions: for pest or weed control at 125 g/ha / pest or weed control at 500 g/ha: Echinochloa crus-galli
Procedure, shortened: (§1)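 Greenhouse pot assay with simultaneous preemergence (treated seed) and postemergence (2–18 cm seedlings) applications of surfactant-containing, non-phytotoxic solvent formulations. Response scored visually 13–15 days later on a 0–100 scale, 100 meaning complete control.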

cocklebur = assay: Test B pre-/postemergence herbicide test; type: in vivo, Xanthium strumarium; conditions: for pest or weed control at 125 g/ha / pest or weed control at 500 g/ha: Xanthium strumarium
Procedure, shortened: as §1

bermudagrass = assay: Test C pre-/postemergence herbicide test; type: in vivo, Cynodon dactylon
Procedure, shortened: (§2)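 Seeds were planted and sprayed preemergence with test chemicals in a non-phytotoxic solvent mixture containing surfactant; postemergence treatments went onto plants 2 to 18 cm tall (1- to 4-leaf stage). After 12 to 14 days in a greenhouse, injury was rated visually against untreated controls on a 0–100 scale.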

Surinam grass = assay: Test C pre-/postemergence herbicide test; type: in vivo, Urochloa decumbens; conditions: for Surinam Grass plant response rating: Preemergence, scale 0 to 100, 0 no effect, 100 complete control
Text: Seeds of plant species selected from bermudagrass (Cynodon dactylon (L.) Pers.), Surinam grass (Urochloa decumbens (Staph) R. D. Webster, previously named Brachiaria decumbens Stapf), cocklebur (Xanthium strumarium L.), corn (Zea mays L.), large crabgrass (Digitaria sanguinalis (L.) Scop.), woolly cupgrass (Eriochloa villosa (Thunb.) Kunth), giant foxtail (Setaria faberi Herrm.), goosegrass (Eleusine indica (L.) Gaertn.), johnsongrass (Sorghum halepense (L.) Pers.), kochia (Kochia scoparia (L.) Schrad.), lambsquarters (Chenopodium album L.), morningglory (Ipomoea coccinea L.), eastern black nightshade (Solanum ptycanthum Dunal), yellow nutsedge (Cyperus esculentus L.), pigweed (Amaranthus retroflexus L.), common ragweed (Ambrosia elatior L.), soybean (Glycine max (L.) Merr.), common (oilseed) sunflower (Helianthus annuus L.) and velvetleaf (Abutilon theophrasti Medik.) were planted and treated preemergence with test chemicals formulated in a non-phytotoxic solvent mixture which included a surfactant.
At the same time, plants selected from these crop and weed species and also winter barley (Hordeum vulgare L.), blackgrass (Alopecurus myosuroides Huds.), canarygrass (Phalaris minor Retz.), chickweed (Stellaria media (L.) Vill.), downy bromegrass (Bromus tectorum L.), green foxtail (Setaria viridis (L.) Beauv.), Italian ryegrass (Lolium multiflorum Lam.), wheat (Triticum aestivum L.), wild oat (Avenafatua L.) and windgrass (Apera spica-venti (L.) Beauv.) were treated with postemergence applications of some of the test chemicals formulated in the same manner. Plants ranged in height from 2 to 18 cm (1- to 4-leaf stage) for postemergence treatments. Plant species in the flooded paddy test consisted of rice (Oryza sativa), smallflower umbrella sedge (Cyperus difformis L.), ducksalad (Heteranthera limosa (Sw.) Willd.) and barnyardgrass (Echinochloa crus-galli (L.) Beauv.) grown to the 2-leaf stage for testing. Treated plants and controls were maintained in a greenhouse for 12 to 14 days, after which time all species were compared to controls and visually evaluated. Plant response ratings, summarized in Table C, are based on a scale of 0 to 100 where 0 is no effect and 100 is complete control. A dash (-) response means no test result.

morningglory = assay: Test C pre-/postemergence herbicide test; type: in vivo, Ipomoea coccinea; design: key to Plant response rating, Morningglory: 0 = no effect, 100 = complete control; conditions: for Morningglory plant response rating: Preemergence, scale 0 to 100, 0 no effect, 100 complete control
Procedure, shortened: as §2

pigweed = assay: Test C pre-/postemergence herbicide test; type: in vivo, Amaranthus retroflexus; conditions: for Pigweed plant response rating: Preemergence, scale 0 to 100, 0 no effect, 100 complete control
Procedure, shortened: as §2

[1] = 125 g ai/ha, 0 = no effect, 100 = complete control, preemergence
[2] = 125 g ai/ha, visual rating, scale 0 (no effect) to 100 (complete control), postemergence
[3] = 500 g ai/ha, visual rating, 0 = no effect, 100 = complete control, preemergence
[4] = postemergence, 500 g ai/ha, scale 0 to 100, 0 is no effect, 100 is complete control
[5] = 62 g ai/ha, preemergence, scale 0 to 100, 0 no effect, 100 complete control
[6] = 125 g ai/ha, scale 0 (no effect) to 100 (complete control), visual, 12 to 14 days, preemergence
[7] = 250 g ai/ha, scale 0-100, preemergence
[8] = Preemergence, 500 g ai/ha, scale 0 to 100, 0 no effect, 100 complete control
[9] = 62 g ai/ha, preemergence, scale 0 to 100
[10] = 500 g ai/ha, scale 0 to 100 (0 no effect, 100 complete control), visual, 12 to 14 days, preemergence
[11] = Postemergence, 500 g ai/ha, visual rating after 13 to 15 days, scale 0 (no effect) to 100 (complete control)
[12] = Preemergence, 500 g ai/ha, scale 0 to 100
[13] = postemergence, 125 g ai/ha, visual rating, scale 0 (no effect) to 100 (complete control)
[14] = preemergence, 125 g ai/ha, 0 to 100 scale, 0 is no effect, 100 is complete control
[15] = 250 g ai/ha, scale 0 to 100 (0 no effect, 100 complete control), visual, 12 to 14 days, preemergence
[16] = 500 g ai/ha, visual rating 0-100, 0 no effect, 100 complete control, preemergence
[17] = postemergence, 500 g ai/ha, visual rating, scale 0 (no effect) to 100 (complete control)

Compound | Barnyardgrass plant response rating (0 to 100 scale) (barnyardgrass; [1]) | Cocklebur plant response rating (0 to 100 scale) (cocklebur; [1]) | Plant response rating, Bermudagrass (bermudagrass; [5]) | Plant response rating, Bermudagrass (bermudagrass; [6]) | Plant response rating, Bermudagrass (bermudagrass; [7]) | Bermudagrass plant response rating (bermudagrass; [8]) | Plant response rating, Surinam Grass (Surinam grass; [9]) | Plant response rating, Surinam Grass (Surinam grass; [7]) | Plant response rating, Morningglory (morningglory; [9]) | Plant response rating, Morningglory (morningglory; [6]) | Plant response rating, Morningglory (morningglory; [7]) | Plant response rating, Pigweed (pigweed; [9]) | Plant response rating, Pigweed (pigweed; [6]) | Plant response rating, Pigweed (pigweed; [7]) | Barnyardgrass plant response rating (barnyardgrass; [13]) | Cocklebur plant response rating (cocklebur; [13]) | Plant response rating, Surinam Grass (Surinam grass; [6]) | Surinam Grass plant response rating (Surinam grass; 500 g ai/ha) | Morningglory plant response rating (morningglory; 500 g ai/ha) | Pigweed plant response rating (pigweed; 500 g ai/ha) | also measured
CCN1N=C(C(C)(C)C)CC1C(=O)Nc1cc(C(=O)N2CC=CC2)ccc1F (racemic) [Compound 310] | 60 | 10 | 50 | 85 | 100 | 100 | 5 | 30 | 0 | 5 | 5 | 100 | 100 | 100 |  |  |  |  |  |  | Barnyardgrass plant response rating (barnyardgrass; [2]): 0; Plant response rating, Barnyardgrass (barnyardgrass; [3]): 90; Barnyardgrass plant response rating (barnyardgrass; [4]): 20; Cocklebur plant response rating (cocklebur; [2]): 0; Plant response rating, Cocklebur (cocklebur; [3]): 50; Cocklebur plant response rating (cocklebur; [4]): 20; Plant response rating, Surinam Grass (Surinam grass; [10]): 50; Plant response rating, Morningglory (morningglory; [10]): 10; Plant response rating, Pigweed (pigweed; [10]): 100
C=CCn1nc(C(C)(C)C)cc1C(=O)Nc1cccc(C(=O)NCC)c1 [Compound 56] |  |  |  | 90 |  | 95 |  |  |  | 0 |  |  | 100 |  | 20 | 80 | 15 | 75 | 55 | 100 | Plant response rating, Barnyardgrass (barnyardgrass; [11]): 20; Barnyardgrass plant response rating (barnyardgrass; [12]): 80; Plant response rating, Barnyardgrass (barnyardgrass; [14]): 50; Plant response rating, Cocklebur (cocklebur; [11]): 80; Cocklebur plant response rating (cocklebur; [12]): 20; Plant response rating, Cocklebur (cocklebur; [14]): 0; Plant response rating (0 = no effect, 100 = complete control), Bermudagrass (bermudagrass; 62 g ai/ha, preemergence): 85; Plant response rating, Bermudagrass (bermudagrass; [15]): 95; Plant response rating (0 = no effect, 100 = complete control), Surinam Grass (Surinam grass; 62 g ai/ha, preemergence): 10; Plant response rating, Surinam Grass (Surinam grass; [15]): 60; Plant response rating (0 = no effect, 100 = complete control), Morningglory (morningglory; 62 g ai/ha, preemergence): 0; Plant response rating, Morningglory (morningglory; [15]): 55; Plant response rating (0 = no effect, 100 = complete control), Pigweed (pigweed; 62 g ai/ha, preemergence): 100; Plant response rating, Pigweed (pigweed; [15]): 100
CCn1nc(C(C)(C)C)cc1C(=O)Nc1cc(C(=O)N(C)C)ccn1 [Compound 156, 2-[[[3-(1,1-dimethylethyl)-1-ethyl-1H-pyrazol-5-yl]carbonyl]amino]-N,N-dimethyl-4-pyridinecarboxamide] |  |  |  |  |  |  |  |  |  |  |  |  |  |  |  |  |  | 95 | 100 | 100 | pest or weed control at 125 g/ha (barnyardgrass; post-emergence, postemergence, 125 g ai/ha, visual rating, scale 0 (no effect) to 100 (complete control), read-out: Barnyardgrass plant response rating): 10%; pest or weed control at 500 g/ha (barnyardgrass; post-emergence, postemergence, 500 g ai/ha, visual rating, scale 0 (no effect) to 100 (complete control), read-out: Barnyardgrass plant response rating): 40%; pest or weed control at 500 g/ha (barnyardgrass; pre-emergence, 500 g ai/ha, visual rating 0-100, 0 no effect, 100 complete control, read-out: Plant response rating, Barnyardgrass): 100%; pest or weed control at 125 g/ha (barnyardgrass; pre-emergence, preemergence, 125 g ai/ha, 0 to 100 scale, 0 is no effect, 100 is complete control, read-out: Plant response rating, Barnyardgrass): 100%; pest or weed control at 125 g/ha (cocklebur; post-emergence, postemergence, 125 g ai/ha, visual rating, scale 0 (no effect) to 100 (complete control), read-out: Cocklebur plant response rating): 40%; pest or weed control at 500 g/ha (cocklebur; post-emergence, postemergence, 500 g ai/ha, visual rating, scale 0 (no effect) to 100 (complete control), read-out: Cocklebur plant response rating): 80%; pest or weed control at 500 g/ha (cocklebur; pre-emergence, 500 g ai/ha, visual rating 0-100, 0 no effect, 100 complete control, read-out: Plant response rating, Cocklebur): 100%; pest or weed control at 125 g/ha (cocklebur; pre-emergence, preemergence, 125 g ai/ha, 0 to 100 scale, 0 is no effect, 100 is complete control, read-out: Plant response rating, Cocklebur): 100%; pest or weed control at 16 g/ha (bermudagrass; Cynodon dactylon, pre-emergence, 312 h, 16 g ai/ha, scale 0 to 100, 0 no effect, 100 complete control, last section of Table C (species set of preemergence test), read-out: Plant response rating, Bermudagrass): 0%; pest or weed control at 31 g/ha (bermudagrass; Cynodon dactylon, pre-emergence, 312 h, 31 g ai/ha, scale 0 to 100, 0 no effect, 100 complete control, last section of Table C (species set of preemergence test), read-out: Plant response rating, Bermudagrass): 60%; pest or weed control at 62 g/ha (bermudagrass; Cynodon dactylon, pre-emergence, 312 h, 62 g ai/ha, preemergence, scale 0 to 100, 0 no effect, 100 complete control, read-out: Plant response rating, Bermudagrass): 88%; pest or weed control at 125 g/ha (bermudagrass; Cynodon dactylon, pre-emergence, 312 h, 125 g ai/ha, scale 0 (no effect) to 100 (complete control), visual, 12 to 14 days, read-out: Plant response rating, Bermudagrass): 93%; pest or weed control at 250 g/ha (bermudagrass; Cynodon dactylon, pre-emergence, 312 h, 250 g ai/ha, scale 0 to 100 (0 no effect, 100 complete control), visual, 12 to 14 days, read-out: Plant response rating, Bermudagrass): 95%; pest or weed control at 500 g/ha (bermudagrass; Cynodon dactylon, pre-emergence, 312 h, Preemergence, 500 g ai/ha, scale 0 to 100, 0 no effect, 100 complete control, read-out: Bermudagrass plant response rating): 95%; pest or weed control at 62 g/ha (Surinam grass; Urochloa decumbens, pre-emergence, 312 h, 62 g ai/ha, preemergence, scale 0 to 100, read-out: Plant response rating, Surinam Grass): 75%; pest or weed control at 125 g/ha (Surinam grass; Urochloa decumbens, pre-emergence, 312 h, 125 g ai/ha, scale 0 (no effect) to 100 (complete control), visual, 12 to 14 days, read-out: Plant response rating, Surinam Grass): 88%; pest or weed control at 62 g/ha (morningglory; Ipomoea, pre-emergence, 62 g ai/ha, preemergence, scale 0 to 100, read-out: Plant response rating, Morningglory): 8%; pest or weed control at 125 g/ha (morningglory; Ipomoea, pre-emergence, 125 g ai/ha, scale 0 (no effect) to 100 (complete control), visual, 12 to 14 days, read-out: Plant response rating, Morningglory): 60%; pest or weed control at 62 g/ha (pigweed; Amaranthus retroflexus, pre-emergence, 62 g ai/ha, preemergence, scale 0 to 100, read-out: Plant response rating, Pigweed): 95%; pest or weed control at 125 g/ha (pigweed; Amaranthus retroflexus, pre-emergence, 125 g ai/ha, scale 0 (no effect) to 100 (complete control), visual, 12 to 14 days, read-out: Plant response rating, Pigweed): 98%
CCNC(=O)c1ccc(F)c(NC(=O)c2cn(C(C)(C)C)nc2CC)c1 [Compound 193] | 90 | 10 | 60 | 80 | 85 | 100 | 50 | 95 | 20 | 20 | 100 | 100 | 100 | 100 | 0 | 20 | 80 | 100 | 100 | 100 | Plant response rating, Barnyardgrass (barnyardgrass; [16]): 100; Barnyardgrass plant response rating (barnyardgrass; [17]): 10; Plant response rating, Cocklebur (cocklebur; [16]): 70; Cocklebur plant response rating (cocklebur; [17]): 70
